From ChEMBL document CHEMBL1909046, “DrugMatrix in vitro pharmacology data”

Experiments:
[1] = target: Melanocortin receptor 4 (Homo sapiens, UniProt P32245); type: cell membranes, HEK293, Membrane; details: hek293; note: in other assays of this panel Not Active means under 50% inhibition at 10 µM
[2] = DRUGMATRIX: Glutamate, Kainate radioligand binding (ligand: [3H] Kainic acid); type: cell membranes, Rattus norvegicus, Wistar, Brain, Membrane; details: Not Active = under 50% inhibition at 10 µM
[3] = target: Epidermal growth factor receptor (Homo sapiens, UniProt P00533); assay: DRUGMATRIX: Protein Tyrosine Kinase, EGF Receptor enzyme inhibition (substrate: Poly(Glu:Tyr)); type: cell-based, Insect cells; details: insect cells; Not Active = under 50% inhibition at 10 µM
[4] = target: T1, Calcitonin receptor (Homo sapiens, UniProt P30988); type: cell membranes, Membrane; details: t47d; note: in other assays of this panel Not Active means under 50% inhibition at 10 µM
T1 sequence (P30988 whole entry): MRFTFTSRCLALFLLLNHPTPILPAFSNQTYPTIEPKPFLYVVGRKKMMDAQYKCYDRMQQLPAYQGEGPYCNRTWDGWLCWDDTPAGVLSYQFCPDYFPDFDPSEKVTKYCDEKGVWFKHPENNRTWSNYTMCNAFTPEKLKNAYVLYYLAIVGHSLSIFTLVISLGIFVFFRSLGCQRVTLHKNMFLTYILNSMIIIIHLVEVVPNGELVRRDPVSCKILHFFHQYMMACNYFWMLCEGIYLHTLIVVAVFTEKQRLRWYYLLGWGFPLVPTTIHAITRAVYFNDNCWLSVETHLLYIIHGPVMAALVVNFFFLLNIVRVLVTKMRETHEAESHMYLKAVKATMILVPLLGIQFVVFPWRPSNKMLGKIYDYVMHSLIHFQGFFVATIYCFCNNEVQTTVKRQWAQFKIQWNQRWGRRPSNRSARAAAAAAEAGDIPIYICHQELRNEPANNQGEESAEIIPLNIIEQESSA

[5] = target: Cytochrome P450 3A4 (Homo sapiens, UniProt P08684); details: bti-tn-5b1-4; note: in other assays of this panel Not Active means under 50% inhibition at 10 µM
[6] = target: Cytochrome P450 2C9 (Homo sapiens, UniProt P11712); details: bti-tn-5b1-4; note: in other assays of this panel Not Active means under 50% inhibition at 10 µM
[7] = target: T2, 3-hydroxy-3-methylglutaryl-coenzyme A reductase (Homo sapiens, UniProt P04035); design: species or system Escherichia coli
T2 sequence (P04035 whole entry): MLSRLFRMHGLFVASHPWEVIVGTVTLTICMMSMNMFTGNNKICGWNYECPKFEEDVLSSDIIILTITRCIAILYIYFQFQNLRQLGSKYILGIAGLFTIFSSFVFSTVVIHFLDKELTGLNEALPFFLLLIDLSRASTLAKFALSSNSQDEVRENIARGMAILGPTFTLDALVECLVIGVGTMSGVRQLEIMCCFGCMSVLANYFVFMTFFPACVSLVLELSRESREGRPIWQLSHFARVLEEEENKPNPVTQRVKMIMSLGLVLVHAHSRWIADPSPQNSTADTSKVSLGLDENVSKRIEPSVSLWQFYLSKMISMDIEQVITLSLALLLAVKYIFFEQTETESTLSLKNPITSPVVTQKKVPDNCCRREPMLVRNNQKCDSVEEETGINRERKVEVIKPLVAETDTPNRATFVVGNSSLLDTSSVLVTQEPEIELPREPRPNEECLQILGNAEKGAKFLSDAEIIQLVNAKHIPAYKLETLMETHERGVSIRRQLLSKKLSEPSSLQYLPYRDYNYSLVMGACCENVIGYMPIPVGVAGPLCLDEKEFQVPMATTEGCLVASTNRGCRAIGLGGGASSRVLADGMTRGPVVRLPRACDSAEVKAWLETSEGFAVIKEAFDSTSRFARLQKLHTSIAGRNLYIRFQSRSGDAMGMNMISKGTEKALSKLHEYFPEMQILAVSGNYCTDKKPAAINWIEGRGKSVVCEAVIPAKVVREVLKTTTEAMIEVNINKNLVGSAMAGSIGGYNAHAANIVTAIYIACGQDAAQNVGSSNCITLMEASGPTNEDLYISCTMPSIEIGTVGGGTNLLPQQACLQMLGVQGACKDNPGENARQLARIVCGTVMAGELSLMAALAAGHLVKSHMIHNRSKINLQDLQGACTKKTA

[8] = target: T3, Nitric oxide synthase, inducible (Mus musculus, UniProt P29477); design: species or system Escherichia coli
T3 sequence (P29477 whole entry): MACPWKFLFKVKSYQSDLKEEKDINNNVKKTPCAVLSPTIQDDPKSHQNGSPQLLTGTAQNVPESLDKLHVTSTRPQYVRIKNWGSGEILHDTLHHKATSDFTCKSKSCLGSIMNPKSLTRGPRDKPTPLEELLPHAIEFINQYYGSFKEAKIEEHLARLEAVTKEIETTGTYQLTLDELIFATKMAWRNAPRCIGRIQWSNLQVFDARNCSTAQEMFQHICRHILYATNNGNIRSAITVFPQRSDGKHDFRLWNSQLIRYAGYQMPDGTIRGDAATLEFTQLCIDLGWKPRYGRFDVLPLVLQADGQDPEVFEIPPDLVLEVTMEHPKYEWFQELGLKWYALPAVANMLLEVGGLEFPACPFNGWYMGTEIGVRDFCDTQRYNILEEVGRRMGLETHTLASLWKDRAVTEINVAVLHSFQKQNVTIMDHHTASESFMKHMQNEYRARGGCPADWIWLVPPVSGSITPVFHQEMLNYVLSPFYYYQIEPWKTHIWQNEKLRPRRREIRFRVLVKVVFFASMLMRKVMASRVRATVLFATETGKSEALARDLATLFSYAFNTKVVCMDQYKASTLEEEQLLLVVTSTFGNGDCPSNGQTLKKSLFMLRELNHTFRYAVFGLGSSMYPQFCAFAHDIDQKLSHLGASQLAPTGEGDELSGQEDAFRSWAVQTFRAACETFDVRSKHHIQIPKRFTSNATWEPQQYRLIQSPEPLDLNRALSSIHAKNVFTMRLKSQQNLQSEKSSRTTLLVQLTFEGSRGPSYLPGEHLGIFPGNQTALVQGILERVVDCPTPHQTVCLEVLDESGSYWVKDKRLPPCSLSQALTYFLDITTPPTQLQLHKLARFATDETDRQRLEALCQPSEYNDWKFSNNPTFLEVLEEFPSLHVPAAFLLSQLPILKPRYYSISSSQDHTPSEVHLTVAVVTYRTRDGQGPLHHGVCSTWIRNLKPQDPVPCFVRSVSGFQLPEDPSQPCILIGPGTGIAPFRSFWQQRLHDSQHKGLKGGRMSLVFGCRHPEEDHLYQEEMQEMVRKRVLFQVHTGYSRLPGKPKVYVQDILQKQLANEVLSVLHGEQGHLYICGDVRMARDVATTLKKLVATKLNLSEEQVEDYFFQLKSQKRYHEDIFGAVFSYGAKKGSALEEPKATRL

Chain of Epidermal growth factor receptor (P00533 whole entry): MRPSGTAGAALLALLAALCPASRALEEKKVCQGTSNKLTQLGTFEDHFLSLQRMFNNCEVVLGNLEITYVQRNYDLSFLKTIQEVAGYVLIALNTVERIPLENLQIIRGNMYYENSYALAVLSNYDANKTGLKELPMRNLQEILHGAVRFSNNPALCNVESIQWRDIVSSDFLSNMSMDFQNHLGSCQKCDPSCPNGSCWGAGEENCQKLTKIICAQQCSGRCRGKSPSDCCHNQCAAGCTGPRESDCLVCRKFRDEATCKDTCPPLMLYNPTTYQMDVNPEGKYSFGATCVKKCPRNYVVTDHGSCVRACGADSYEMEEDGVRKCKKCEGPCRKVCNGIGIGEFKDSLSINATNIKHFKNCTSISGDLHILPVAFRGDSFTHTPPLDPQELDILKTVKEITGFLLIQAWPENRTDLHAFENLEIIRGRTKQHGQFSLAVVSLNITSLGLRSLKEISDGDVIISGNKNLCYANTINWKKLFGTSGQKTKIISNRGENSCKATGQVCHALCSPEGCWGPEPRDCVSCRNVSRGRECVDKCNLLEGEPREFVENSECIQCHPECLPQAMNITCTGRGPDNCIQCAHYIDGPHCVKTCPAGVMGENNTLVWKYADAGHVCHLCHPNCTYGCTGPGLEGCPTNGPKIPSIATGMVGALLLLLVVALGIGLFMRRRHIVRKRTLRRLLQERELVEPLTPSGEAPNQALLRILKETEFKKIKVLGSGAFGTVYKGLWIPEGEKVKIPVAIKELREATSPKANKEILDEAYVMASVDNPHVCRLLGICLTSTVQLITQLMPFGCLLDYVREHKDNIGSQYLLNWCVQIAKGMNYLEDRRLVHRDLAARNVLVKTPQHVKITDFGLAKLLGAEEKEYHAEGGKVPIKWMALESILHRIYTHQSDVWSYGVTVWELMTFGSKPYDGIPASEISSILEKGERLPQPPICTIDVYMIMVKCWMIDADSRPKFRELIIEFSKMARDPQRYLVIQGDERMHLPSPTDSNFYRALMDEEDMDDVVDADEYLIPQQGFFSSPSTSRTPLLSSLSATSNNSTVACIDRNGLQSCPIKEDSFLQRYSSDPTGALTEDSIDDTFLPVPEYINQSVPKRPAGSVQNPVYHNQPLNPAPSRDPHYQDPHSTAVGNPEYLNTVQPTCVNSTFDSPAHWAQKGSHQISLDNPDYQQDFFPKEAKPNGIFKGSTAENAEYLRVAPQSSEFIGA
Chain of Melanocortin receptor 4 (P32245 whole entry): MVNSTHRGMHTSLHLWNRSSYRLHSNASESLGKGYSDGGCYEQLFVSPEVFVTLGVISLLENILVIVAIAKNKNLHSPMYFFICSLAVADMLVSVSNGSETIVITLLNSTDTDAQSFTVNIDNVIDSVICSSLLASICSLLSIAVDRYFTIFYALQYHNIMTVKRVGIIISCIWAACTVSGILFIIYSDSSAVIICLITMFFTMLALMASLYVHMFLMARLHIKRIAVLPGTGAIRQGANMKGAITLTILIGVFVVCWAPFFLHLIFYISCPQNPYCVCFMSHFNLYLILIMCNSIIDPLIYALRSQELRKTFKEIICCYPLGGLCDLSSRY
Chain of Cytochrome P450 3A4 (P08684 whole entry): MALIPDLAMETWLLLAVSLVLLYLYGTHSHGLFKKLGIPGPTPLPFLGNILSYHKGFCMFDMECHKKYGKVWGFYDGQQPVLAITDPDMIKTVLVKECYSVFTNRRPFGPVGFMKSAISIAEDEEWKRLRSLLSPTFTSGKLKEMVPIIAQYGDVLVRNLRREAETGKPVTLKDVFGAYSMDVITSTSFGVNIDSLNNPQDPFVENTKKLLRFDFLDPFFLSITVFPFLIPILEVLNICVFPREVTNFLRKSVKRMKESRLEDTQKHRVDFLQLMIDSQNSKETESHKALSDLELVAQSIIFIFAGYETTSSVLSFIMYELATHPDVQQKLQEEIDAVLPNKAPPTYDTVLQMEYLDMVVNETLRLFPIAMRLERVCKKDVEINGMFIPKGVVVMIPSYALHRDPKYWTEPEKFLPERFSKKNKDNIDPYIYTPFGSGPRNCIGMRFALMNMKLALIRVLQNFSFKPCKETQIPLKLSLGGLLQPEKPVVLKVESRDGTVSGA
Chain of Cytochrome P450 2C9 (P11712 whole entry): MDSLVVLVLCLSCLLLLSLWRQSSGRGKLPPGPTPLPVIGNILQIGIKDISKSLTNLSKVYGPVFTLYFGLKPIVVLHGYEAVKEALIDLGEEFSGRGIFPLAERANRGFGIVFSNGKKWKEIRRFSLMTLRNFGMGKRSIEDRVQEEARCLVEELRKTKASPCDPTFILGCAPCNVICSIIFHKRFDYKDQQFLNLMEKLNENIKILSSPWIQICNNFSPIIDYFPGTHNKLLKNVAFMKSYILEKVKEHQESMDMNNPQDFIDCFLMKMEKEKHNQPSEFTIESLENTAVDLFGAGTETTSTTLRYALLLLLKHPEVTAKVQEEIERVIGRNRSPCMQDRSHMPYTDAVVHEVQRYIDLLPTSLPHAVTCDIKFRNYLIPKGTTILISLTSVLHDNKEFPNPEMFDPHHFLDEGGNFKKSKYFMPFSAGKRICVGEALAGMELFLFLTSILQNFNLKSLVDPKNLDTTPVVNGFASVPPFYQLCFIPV

O=C1O[C@H]([C@@H](O)CO)C(O)=C1O [ASCORBIC ACID]
Not Active: IC50 [1] | IC50 [2] | Ki [2] | IC50 [3] | IC50 [4] | IC50 [5] | Ki [5] | IC50 [6] | Ki [6] | IC50 [7] | IC50 [8]

CC(C(=O)O)c1ccc2oc(-c3ccc(Cl)cc3)nc2c1 (centres undefined) [BENOXAPROFEN]
Not Active: IC50 [1] | IC50 [2] | Ki [2] | IC50 [3] | IC50 [4] | IC50 [5] | Ki [5] | IC50 [6] | Ki [6] | IC50 [7] | IC50 [8]

COc1ccc2cc3[n+](cc2c1OC)CCc1cc2c(cc1-3)OCO2.[Cl-] [BERBERINE CHLORIDE]
Not Active: IC50 [1] | IC50 [2] | Ki [2] | IC50 [3] | IC50 [4] | IC50 [5] | Ki [5] | IC50 [6] | Ki [6] | IC50 [7] | IC50 [8]

O=C(O)CCNC(=O)c1ccccc1 [BETAMIPRON]
Not Active: IC50 [1] | IC50 [2] | Ki [2] | IC50 [3] | IC50 [4] | IC50 [5] | Ki [5] | IC50 [6] | Ki [6] | IC50 [7] | IC50 [8]

Cc1cc2c(OCC(CNC(C)(C)C)OC(=O)c3ccccc3)cccc2[nH]1 (centres undefined) [BOPINDOLOL]
Not Active: IC50 [1] | IC50 [2] | Ki [2] | IC50 [3] | IC50 [4] | IC50 [5] | Ki [5] | IC50 [6] | Ki [6] | IC50 [7] | IC50 [8]

Brc1c(NC2=NCCN2)ccc2nccnc12 [BRIMONIDINE]
Not Active: IC50 [1] | IC50 [2] | Ki [2] | IC50 [3] | IC50 [4] | IC50 [5] | Ki [5] | IC50 [6] | Ki [6] | IC50 [7] | IC50 [8]

CN(C)[C@@H]1C(O)=C(C(N)=O)C(=O)[C@@]2(O)C(O)=C3C(=O)c4c(O)ccc(Cl)c4[C@@](C)(O)[C@H]3C[C@@H]12 [CHLORTETRACYCLINE]
Not Active: IC50 [1] | IC50 [2] | Ki [2] | IC50 [3] | IC50 [4] | IC50 [5] | Ki [5] | IC50 [6] | Ki [6] | IC50 [7] | IC50 [8]

CCC(=O)O[C@]1(C(=O)CCl)[C@@H](C)C[C@H]2[C@@H]3CCC4=CC(=O)C=C[C@]4(C)[C@@]3(F)[C@@H](O)C[C@@]21C [CLOBETASOL PROPIONATE]
Not Active: IC50 [1] | IC50 [2] | Ki [2] | IC50 [3] | IC50 [4] | IC50 [5] | Ki [5] | IC50 [6] | Ki [6] | IC50 [7] | IC50 [8]

O=C1CN=C(c2ccccc2Cl)c2cc([N+](=O)[O-])ccc2N1 [CLONAZEPAM]
Not Active: IC50 [1] | IC50 [2] | Ki [2] | IC50 [3] | IC50 [4] | IC50 [5] | Ki [5] | IC50 [6] | Ki [6] | IC50 [7] | IC50 [8]

Nc1ccn([C@@H]2O[C@H](CO)[C@@H](O)[C@@H]2O)c(=O)n1 [CYTARABINE]
Not Active: IC50 [1] | IC50 [2] | Ki [2] | IC50 [3] | IC50 [4] | IC50 [5] | Ki [5] | IC50 [6] | Ki [6] | IC50 [7] | IC50 [8]

C[C@@H]1C[C@H]2[C@@H]3CCC4=CC(=O)C=C[C@]4(C)[C@@]3(F)[C@@H](O)C[C@]2(C)[C@H]1C(=O)CO [DESOXIMETASONE]
Not Active: IC50 [1] | IC50 [2] | Ki [2] | IC50 [3] | IC50 [4] | IC50 [5] | Ki [5] | IC50 [6] | Ki [6] | IC50 [7] | IC50 [8]

CN(C)CC[C@@H](c1ccc(Cl)cc1)c1ccccn1 [DEXCHLORPHENIRAMINE]
Not Active: IC50 [1] | IC50 [2] | Ki [2] | IC50 [3] | IC50 [4] | IC50 [5] | Ki [5] | IC50 [6] | Ki [6] | IC50 [7] | IC50 [8]

C[C@@H]1CC[C@@]2(OC1)O[C@H]1[C@@H](O)[C@H]3[C@@H]4CC[C@H]5C[C@@H](O[C@@H]6O[C@H](CO)[C@H](O[C@@H]7O[C@H](CO)C(O)[C@H](O[C@@H]8OC[C@@H](O)[C@H](O)[C@H]8O)[C@H]7O[C@@H]7O[C@H](CO)[C@H](O)[C@H](O[C@@H]8O[C@H](CO)[C@@H](O)[C@H](O)[C@H]8O)[C@H]7O)[C@H](O)[C@H]6O)[C@H](O)C[C@]5(C)[C@H]4CC[C@]3(C)[C@H]1[C@@H]2C (some centres undefined) [DIGITONIN]
Not Active: IC50 [1] | IC50 [2] | Ki [2] | IC50 [3] | IC50 [4] | IC50 [5] | Ki [5] | IC50 [6] | Ki [6] | IC50 [7] | IC50 [8]

OC(CCCN1CCCCC1)(c1ccccc1)c1ccccc1 [DIPHENIDOL]
Not Active: IC50 [1] | IC50 [2] | Ki [2] | IC50 [3] | IC50 [4] | IC50 [5] | Ki [5] | IC50 [6] | Ki [6] | IC50 [7] | IC50 [8]
